The data set is described as follows: Human HepG2 cell viability assay in 384 well format. In kind it is toxicity, cell-based. The arrangement: dose 125 nL, time 70.5 hour; concentration not given beside the values. As to conditions: HepG2 cells, read-out: Inhibition.

With `Cn1c(=O)c2c(n3ncnc13)NC(=O)CC2c1cccc(F)c1` (stereo not drawn), the cytotoxicity at 70.5 h was -11.8%.
Consider `O=C(c1cocn1)N1CCC2(CC1)CC(OCC1CC1)CO2` (stereo not drawn), for which the cytotoxicity at 70.5 h is -8.99%.
For `CN(Cc1ccncc1)C1CC2(CCN(C(=O)c3ccnnc3)CC2)C1`, the cytotoxicity at 70.5 h was -9.02%.
Turning to `CCN1CCC2(CC1)CN(C(C)=O)c1ccc(C)cc12`, the cytotoxicity at 70.5 h is -7.76%.
For the molecule `CN(Cc1cccnc1)C1CC2(CCN(C(=O)c3cnccn3)CC2)C1`, the cytotoxicity at 70.5 h was -7.42%.
For the molecule `Cc1cc(C(=O)N2CC[C@@H]3CO[C@@H](CN4CCCC4)[C@@H]3C2)no1`, the cytotoxicity at 70.5 h is -7.99%.
For the molecule `CCS(=O)(=O)N1CCN(C(=O)C(C)C)CC2(CC(=O)N(C)C2)C1` (stereo not drawn), the cytotoxicity at 70.5 h is -5.47%.
For the molecule `Cc1nc(CNCC2COCc3c(-c4ccoc4)nnn3C2)cs1` (stereo not drawn), the cytotoxicity at 70.5 h is -6.23%.
As for `CS(=O)(=O)N1C[C@@H]2COC[C@@H](CC(=O)N3CCCO3)[C@@H]2C1`, the cytotoxicity at 70.5 h was -8.58%.
For the molecule `COc1nn(C)c2c1CCCN(S(=O)(=O)c1cccs1)C2`, the cytotoxicity at 70.5 h was 12.6%.
Then `CN1C[C@@H]2CN(C(=O)C3CCOC3)C[C@@H]2C1=O` (stereo partly drawn), with 9.81%; and `O=C(c1ccoc1)N1CCC2(CC1)COC(COCc1ccccn1)C2` (stereo not drawn), with 10.2%; and `CN(C)C(=O)N1CC2(CCN(S(C)(=O)=O)CC2)c2ccccc21`, with -1.58%.
In the case of `O=C(Cc1ccsc1)N1CCC2(CCCN(CC3CCOCC3)C2)C1` (stereo not drawn), the cytotoxicity at 70.5 h was 1.53%.
`CN1C[C@@H]2CN(C(=O)C3CC=CC3)C[C@@H]2C1=O`: the cytotoxicity at 70.5 h was -5.58%.
Then `COCCN1CCC2(COCc3c(C)nc(N(C)C)nc32)C1` (stereo not drawn), with -2.27%.
In the case of `CN1CCN(Cc2cn3c(n2)CN(CC2CC2)CC3)CC1`, the cytotoxicity at 70.5 h was -2.8%.
On to `COc1cccc(S(=O)(=O)N2CCCc3c(OC)nn(C)c3C2)c1`, for which the cytotoxicity at 70.5 h was -5.16%.
For `CS(=O)(=O)N1Cc2nccn2CC(CN2CCCC2)C1` (stereo not drawn), the cytotoxicity at 70.5 h was -3.59%.
Take `CN(C)C(=O)COCc1ncn2c1CN(c1ncc(F)cn1)CCC2`: the cytotoxicity at 70.5 h is 9.71%.
Turning to `Cc1cccc(N2CC[C@@H]3[C@@H](CO[C@H]3CNS(C)(=O)=O)C2)n1`, the cytotoxicity at 70.5 h amounted to 10.6%.
With `CC(C)C(=O)N1CCCC12CCCN(C(=O)c1ccno1)C2` (stereo not drawn), the cytotoxicity at 70.5 h was 13.3%.
On to `Cc1noc([C@@H]2CCO[C@@H]3CCN(C(=O)Cc4ccsc4)C[C@@H]32)n1`, for which the cytotoxicity at 70.5 h amounted to 11.3%.
In the case of `Cc1ccc(N2CC[C@@H]3CN(Cc4c[nH]cn4)C[C@@H]3C2)nn1`, the cytotoxicity at 70.5 h was 11%.
As for `CN(C)C(=O)N1CCN(C(=O)c2cccc(Cl)c2)CC2(CNC(=O)C2)C1` (stereo not drawn), the cytotoxicity at 70.5 h is -4.76%.
`Cc1nnc([C@@H]2CCO[C@@H]3CCN(C(=O)Cc4ccsc4)C[C@@H]32)o1`: the cytotoxicity at 70.5 h was -5.87%.
As to `Cc1ccccc1CNC(=O)N1C[C@H]2C[C@H](C(=O)N3CCCC3)[C@@H](C1)O2`, the cytotoxicity at 70.5 h was -3.56%.
As for `Cc1ccccc1CNC(=O)N1C[C@H]2C[C@H](C(=O)N(C)C)[C@@H](C1)O2`, the cytotoxicity at 70.5 h is -5.69%.
`O=C(C[C@H]1[C@H]2CN(C(=O)Cc3ccccn3)C[C@@H]12)Nc1cccnc1`: the cytotoxicity at 70.5 h was -1.03%.
On to `CS(=O)(=O)N1CCN(C(=O)c2cccc(Cl)c2)CC2(CNC(=O)C2)C1` (stereo not drawn), for which the cytotoxicity at 70.5 h is -0.473%.
Regarding `CC(C)C(=O)N1CCc2nc(C(=O)Nc3cccnc3)sc2CC1`, the cytotoxicity at 70.5 h was -2.65%.
Take `COCC(=O)N1CCc2nc(C(=O)Nc3cccnc3)sc2CC1`: the cytotoxicity at 70.5 h is -2.18%.
Regarding `Cc1ccc(N2CC[C@@H]3[C@@H](CO[C@H]3CNC(=O)c3ccco3)C2)nn1`, the cytotoxicity at 70.5 h is -1.79%.
In the case of `Cc1cc(C(=O)N2CCC3(CC2)C(=O)NCCN3CC(C)C)c(C)o1`, the cytotoxicity at 70.5 h is -2.92%.
Next, `Cc1[nH]/c(=N/C(=O)Cn2nc(N3CCOCC3)ccc2=O)sc1C`: -6.43%; `CCOC(=O)N1CCN(C(=O)c2snnc2-c2ccccc2)CC1`: -9.63%; `Cc1ccc(Cn2c(=O)[nH]c3cccnc3c2=O)cc1`: -8.02%.
As to `CCN1CCc2c(sc3c2C(=O)NC(/C=C\c2ccccc2)N3)C1` (stereo not drawn), the cytotoxicity at 70.5 h is 16.4%.
As to `Cn1c(=O)c2sccc2n(CC(=O)Nc2cccc(Cl)c2)c1=O`, the cytotoxicity at 70.5 h turned out to be 8.96%.
Take `CC(C)c1cccc(NC(=O)Cn2c(=O)n(C)c(=O)c3sccc32)c1`: the cytotoxicity at 70.5 h was 5.39%.
`Nc1ncccc1C(=O)NCc1cccc(Br)c1`: the cytotoxicity at 70.5 h was determined as 13.7%.
As to `Cc1cccc(CNC(=O)c2cccnc2N)c1`, the cytotoxicity at 70.5 h came out at 18%.
Consider `NC1CCN(c2nccn3c(=O)[nH]nc23)CC1`, for which the cytotoxicity at 70.5 h was determined as 22.8%.
For `COc1ccc(-c2ccnc3nc(N4CCCCC4)[nH]c(=O)c23)cc1`, the cytotoxicity at 70.5 h was -9.32%.
Then `O=c1[nH]c(N2CCCCC2)nc2nccc(-c3ccc4c(c3)OCO4)c12`, with -12.9%; and `COc1ccc(-c2ccnc3nc(N4CCCC4)[nH]c(=O)c23)cc1OC`, with -9.78%; and `COc1cccc(-c2ccnc3nc(N4CCCCC4)[nH]c(=O)c23)c1`, with 17.7%.
As to `O=C(CC1Cn2ncnc2NC1=O)Nc1ccccc1` (stereo not drawn), the cytotoxicity at 70.5 h was -8.16%.
Next, `CCOCCCNC(=O)CN(c1ccc(C)c(C)c1)S(C)(=O)=O`: -9.65%; `CC(C)NC(=O)c1ccc2c(c1)nc1n2CCN(Cc2ccccc2)C1`: -12.9%.
Next, `O=C1CSC(c2ccncc2)c2c[nH]nc2N1` (stereo not drawn): -8.06%; `O=C1CSC(c2ccc3c(c2)OCO3)c2cn[nH]c2N1` (stereo not drawn): -4%.
Next, `CCOc1ccc(C2SCC(=O)Nc3c2c(=O)[nH]n3C(C)C)cc1` (stereo not drawn): -11.8%; `CCOCCCNC(=O)CN(c1ccc(F)c(F)c1)S(C)(=O)=O`: -12.9%.
`CN1CCc2c(sc3c2C(=O)NC(/C=C/c2ccccc2)N3)C1` (stereo not drawn): the cytotoxicity at 70.5 h is -11.3%.
Regarding `CCOC(=O)c1ccc(NC(=O)c2c(O)nc3c(c2O)CCCC3)cc1`, the cytotoxicity at 70.5 h is -10.8%.
Take `CC(C)n1[nH]c(=O)c2c1NC(=O)CSC2c1ccc(OCC(N)=O)cc1` (stereo not drawn): the cytotoxicity at 70.5 h is -11.1%.
Then `CC(C)COc1ccc(C2SCC(=O)Nc3c2c(=O)[nH]n3C(C)C)cc1` (stereo not drawn), with -4.59%; and `O=C(Cn1nc2c(cc1=O)CCCC2)NC(Cc1ccccc1)C(=O)O` (stereo not drawn), with -10.7%; and `Cc1cccc(NC(=O)Cc2cnc3n(C)c(=O)[nH]c(=O)n23)c1`, with 22.4%.
Then `Cn1c(=O)[nH]c(=O)n2c(CC(=O)Nc3ccccc3)cnc12`, with -15.7%; and `O=C(Nc1ccccc1F)C1=NOC2(CCNCC2)C1`, with -2.62%.
With `O=C(Nc1ccccc1)C1=NOC2(CCNCC2)C1`, the cytotoxicity at 70.5 h is -6.36%.
Then `Cc1cc(CN2C[C@@H]3COC[C@]3(COCc3csc(C)n3)C2)no1`, with 2.9%; and `Cc1ccnc(OC[C@@]23CCO[C@@H]2CCN(C2CCC2)C3)n1`, with 4.5%; and `Cc1ccnc(OC[C@@]23CCO[C@@H]2CCN(c2ncccn2)C3)n1`, with 5.78%.
Next, `CCS(=O)(=O)NC[C@]12COC[C@H]1CN(Cc1ccsc1)C2`: 7.84%.
For `Cn1cccc1C(=O)N1CCC2(CCCN2c2ncccn2)CC1`, the cytotoxicity at 70.5 h was -13.8%.
As to `CC(C)CN1CC[C@@H]2[C@@H]1CCN2S(=O)(=O)c1cn(C)cn1`, the cytotoxicity at 70.5 h is -10.9%.
With `COCCN1CCC2(CC1)CN(C(C)=O)c1ccc(C)cc12`, the cytotoxicity at 70.5 h is 4.91%.
As to `Cc1ncnc2c1CCN(Cc1nccs1)CC2`, the cytotoxicity at 70.5 h is -5.22%.
Consider `Cc1ccc(N2CCC3(CC2)CNC(=O)CO3)nn1`, for which the cytotoxicity at 70.5 h is -4.26%.
`Cc1nc(COC[C@@]23CCC[C@@H]2CN(Cc2nccs2)C3)cs1`: the cytotoxicity at 70.5 h is -7.37%.
With `CS(=O)(=O)NC[C@]12COC[C@H]1CN(CCc1ccccc1)C2`, the cytotoxicity at 70.5 h is -8.06%.
Consider `CN1CCCCC12CCN(C(=O)c1cccn1C)CC2`, for which the cytotoxicity at 70.5 h was -7.36%.
On to `O=C1COC2(CCN(c3ncccn3)CC2)CN1`, for which the cytotoxicity at 70.5 h is -1.8%.
As for `CCn1nc(C)cc1C(=O)N1CC[C@H](OC)[C@H]2CN(CC3CC3)C[C@H]21`, the cytotoxicity at 70.5 h is 7.23%.
For `Cc1nc(N2CCOCC2)nc2c1COCC21CCN(CC2CC2)C1` (stereo not drawn), the cytotoxicity at 70.5 h was found to be 8.58%.
As for `CS(=O)(=O)N1CCC2(CCCN(Cc3ccccn3)C2)CC1`, the cytotoxicity at 70.5 h worked out at 10.3%.
Regarding `CN(C)C(=O)COCc1nn(C)c2c1CCN(Cc1ccco1)C2`, the cytotoxicity at 70.5 h is -5.57%.
Take `c1cnc(NC[C@@H]2CCC[C@@H]3CN(Cc4csnn4)C[C@@H]32)nc1`: the cytotoxicity at 70.5 h is -9.2%.
Consider `Fc1ccccc1CN1CCCC2(CCN(c3ncccn3)CC2)C1`, for which the cytotoxicity at 70.5 h was -3.46%.
As to `Cc1nc([C@H]2C[C@@H]3CCN(Cc4scnc4C)C[C@H]3O2)no1`, the cytotoxicity at 70.5 h is -5.9%.
For the molecule `Cn1nc(Cn2cccn2)c2c1CN(C1CCOC1)C2` (stereo not drawn), the cytotoxicity at 70.5 h is -6.25%.
Consider `Cc1ccc(N2CC[C@@H]3[C@@H]2CCN3C(=O)c2cscn2)nn1`, for which the cytotoxicity at 70.5 h was -4.17%.
As to `CCS(=O)(=O)NC[C@]12COC[C@H]1CN(Cc1cccnc1)C2`, the cytotoxicity at 70.5 h turned out to be 7.34%.
Next, `Cn1nc(COc2cccnc2)c2c1CCN(Cc1ccco1)C2`: 4.18%.
As to `Cc1ccc(CN2CCCC3(CCN(Cc4ccoc4)CC3)C2)cc1`, the cytotoxicity at 70.5 h turned out to be 15.4%.
For the molecule `CN(C)C[C@@H]1OC[C@H]2CN(Cc3ccoc3)CC[C@H]21`, the cytotoxicity at 70.5 h was -0.512%.
Turning to `CN(Cc1ccncc1)C1CC2(CCN(c3ncc(F)cn3)CC2)C1`, the cytotoxicity at 70.5 h is 2.52%.
Consider `CN(Cc1cccnc1)C1CC2(CCN(c3ncc(F)cn3)CC2)C1`, for which the cytotoxicity at 70.5 h was -5.89%.
As for `Cc1cnc(N2CCC3(CC2)CC(N(C)Cc2ccncc2)C3)nc1`, the cytotoxicity at 70.5 h is -5.66%.
Then `Fc1cnc(N2CC[C@@H]3CN(Cc4ccncc4)CCO[C@@H]3C2)nc1`, with 7.83%.

These data come from ChEMBL document CHEMBL3507680, “University of Dundee, Gates Library screen for HepG2 cell viability”.
